Reference: US9314026B2, “Heterocyclylpyri(mi)dinylpyrazole” (Bayer Intellectual Property GmbH, priority 2011, dated 2016)

Key:
Plasmopara viticola = assay: Plasmopara test (grapevines)/preventive; assay type: in vivo; settings: 100 ppm of active ingredient, preventive, evaluated 6 days after inoculation
Protocol: Plasmopara Test (Grapevines)/Preventive Solvent: 24.5 parts by weight of acetone • 24.5 parts by weight of dimethylacetamide Emulsifier: 1 part by weight of alkylaryl polyglycol ether To produce a suitable preparation of active compound, 1 part by weight of active compound is mixed with the stated amounts of solvent and emulsifier, and the concentrate is diluted with water to the desired concentration. To test for preventive activity, young plants are sprayed with the preparation of active compound at the stated rate of application. […] The plants are then misted and placed for 1 day in an incubation cabinet.

Pyricularia oryzae = assay: whole plant or invertebrate; assay type: in vivo; settings: 168 h, read-out: efficacy
Sphaerotheca fuliginea = assay: Sphaerotheca test (cucumber)/preventive; assay type: in vivo; settings: Podosphaera fuliginea, 168 h, 500 ppm of active ingredient, preventive, evaluated 7 days after inoculation, 0% = untreated control, 100% = no disease, read-out: efficacy
Protocol: (§1) Sphaerotheca Test (Cucumber)/Preventive Solvent: 49 parts by weight of N,N-Dimethylformamide Emulsifier: 1 part by weight of Alkylarylpolyglycolether To produce a suitable preparation of active compound, 1 part by weight of active compound is mixed with the stated amounts of solvent and emulsifier, and the concentrate is diluted with water to the desired concentration. To test for preventive activity, young plants are sprayed with the preparation of active compound at the stated rate of application. One day after this treatment, the plants are inoculated with an aqueous spore suspension of Sphaerotheca fuliginea.

Septoria tritici = assay: Septoria tritici-test (wheat)/preventive; assay type: in vivo; settings: 500 ppm of active ingredient, preventive, evaluated 21 days after inoculation
Protocol: Septoria tritici-Test (Wheat)/Preventive Solvent: 49 parts by weight of n,n-dimethylacetamid Emulsifier: 1 part by weight of alkylaryl polyglycol ether To produce a suitable preparation of active compound, 1 part by weight of active compound or active compound combination is mixed with the stated amounts of solvent and emulsifier, and the concentrate is diluted with water to the desired concentration. To test for preventive activity, young plants are sprayed with the preparation of active compound or active compound combination at the stated rate of application. After the spray coating has been dried, the plants are sprayed with a spore suspension of Septoria tritici.

Alternaria solani = assay: Alternaria test (tomato)/preventive; assay type: in vivo; settings: 168 h, 500 ppm of active ingredient, preventive, evaluated 7 days after inoculation, read-out: efficacy
Protocol: as §1, with “Alternaria” for “Sphaerotheca”, “(Tomato)/Preventive” for “(Cucumber)/Preventive”, “Alternaria solani. […] Then the plants are placed in an incubation cabinet at approximately 20° C. and a relative atmospheric humidity of 96%.” for “Sphaerotheca fuliginea.”

[1] = determination of the log P values by HPLC on a reverse phase column (C18), EEC-Directive 79/831 Annex V.A8; assay type: physicochemical
How it was run: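 Log P determined per EEC-Directive 79/831 Annex V.A8 by reverse-phase (C18) HPLC (methods A, B) or UPLC (method C), with mass detection.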

[2] = test system: Fusarium nivale (var. majus); assay: Fusarium nivale (var. majus)-test (wheat)/preventive; assay type: in vivo; settings: Microdochium nivale, 120 h, 500 ppm of active ingredient, preventive, evaluated 5 days after inoculation, read-out: efficacy
Protocol: Fusarium nivale (Var. Majus)-Test (Wheat)/Preventive Solvent: 49 parts by weight of n,n-dimethylacetamid Emulsifier: 1 part by weight of alkylaryl polyglycol ether To produce a suitable preparation of active compound, 1 part by weight of active compound or active compound combination is mixed with the stated amounts of solvent and emulsifier, and the concentrate is diluted with water to the desired concentration. To test for preventive activity, young plants are sprayed with the preparation of active compound or active compound combination at the stated rate of application. After the spray coating has been dried, the plants are slightly injured by using a sandblast and afterwards they are sprayed with a conidia suspension of Fusarium nivale (var. majus).

Botrytis cinerea = assay: Botrytis test (beans)/preventive; assay type: in vivo; settings: 48 h, 100 ppm of active ingredient, preventive, size of lesions evaluated 2 days after inoculation, read-out: efficacy
Protocol: Botrytis Test (Beans)/Preventive Solvent: 24.5 parts by weight of acetone • 24.5 parts by weight of dimethylacetamide Emulsifier: 1 part by weight of alkylaryl polyglycol ether To produce a suitable preparation of active compound, 1 part by weight of active compound is mixed with the stated amounts of solvent and emulsifier, and the concentrate is diluted with water to the desired concentration. To test for preventive activity, young plants are sprayed with the preparation of active compound. After the spray coating has dried on, 2 small pieces of agar covered with growth of Botrytis cinerea are placed on each leaf.

Fusarium graminearum = assay: whole plant or invertebrate; assay type: in vivo; settings: in Hordeum vulgare, 120 h, read-out: efficacy
Pyrenophora teres = assay: Pyrenophora test (barley)/preventive; assay type: in vivo; settings: 500 ppm of active ingredient, preventive, evaluated 7-9 days after inoculation, read-out: efficacy
Protocol: as §1, with “Pyrenophora” for “Sphaerotheca”, “(Barley)/Preventive” for “(Cucumber)/Preventive”, “Pyrenophora teres.” for “Sphaerotheca fuliginea.”

Phytophthora infestans = assay: whole plant or invertebrate; assay type: in vivo; settings: 72 h, read-out: efficacy
Puccinia recondita = assay: Puccinia test (wheat)/preventive; assay type: in vivo; settings: 500 ppm of active ingredient, preventive, evaluated 7-9 days after inoculation, read-out: efficacy
Protocol: as §1, with “Puccinia” for “Sphaerotheca”, “(Wheat)/Preventive” for “(Cucumber)/Preventive”, “Puccinia recondita.” for “Sphaerotheca fuliginea.”

Leptosphaeria nodorum = assay: Leptosphaeria test (wheat)/preventive; assay type: in vivo; settings: Parastagonospora nodorum, 500 ppm of active ingredient, preventive, evaluated 7-9 days after inoculation, read-out: efficacy
Protocol: Leptosphaeria Test (Wheat)/Preventive Solvent: 49 parts by weight of N,N-Dimethylformamide Emulsifier: 1 part by weight of Alkylarylpolyglycolether To produce a suitable preparation of active compound, 1 part by weight of active compound is mixed with the stated amounts of solvent and emulsifier, and the concentrate is diluted with water to the desired concentration. To test for preventive activity, young plants are sprayed with a preparation of active compound at the stated rate of application. One day after this treatment, the plants are inoculated with an aqueous spore suspension of Leptosphaeria nodorum.

Venturia inaequalis = assay: Venturia test (apples)/preventive; assay type: in vivo; settings: 100 ppm of active ingredient, preventive, evaluated 10 days after inoculation
Protocol: Venturia Test (Apples)/Preventive Solvent: 24.5 parts by weight of acetone • 24.5 parts by weight of dimethylacetamide Emulsifier: 1 part by weight of alkylaryl polyglycol ether To produce a suitable preparation of active compound, 1 part by weight of active compound is mixed with the stated amounts of solvent and emulsifier, and the concentrate is diluted with water to the desired concentration. To test for preventive activity, young plants are sprayed with the preparation of active compound at the stated rate of application.

CC(=O)N(C(C)=O)c1cc(-c2c(-c3ccc(F)cc3)nn3c2CCCC3)ccn1 [Example 1, N-acetyl-N-{4-[2-(4-fluorophenyl)-4,5,6,7-tetrahydropyrazolo[1,5-a]pyridin-3-yl]pyridin-2-yl}acetamide]
efficacy (Plasmopara viticola): 75%
pest or weed control at 500 ppm (Pyricularia oryzae): 80%
pest or weed control at 500 ppm (Sphaerotheca fuliginea): 94%
efficacy (Septoria tritici): 100%
pest or weed control at 500 ppm (Alternaria solani): 100%
chromatographic logP [1]: 2.42
pest or weed control at 500 ppm [2]: 100%
pest or weed control at 100 ppm (Botrytis cinerea): 88%
pest or weed control at 500 ppm (Fusarium graminearum): 100%
pest or weed control at 500 ppm (Pyrenophora teres): 95%
pest or weed control at 100 ppm (Phytophthora infestans): 94%
pest or weed control at 500 ppm (Puccinia recondita): 100%
pest or weed control at 500 ppm (Leptosphaeria nodorum): 95%

CCC(=O)N(C(=O)C(C)C)c1cc(-c2c(-c3ccc(F)cc3)nn3c2CCOC3C)ccn1 (stereo not shown) [Example 3, N-{4-[2-(4-fluorophenyl)-7-methyl-4,5-dihydropyrazolo[1,5-c][1,3]oxazin-3-yl]pyridin-2-yl}-2-methyl-N-propionylpropanamide]
pest or weed control at 500 ppm (Pyricularia oryzae): 90%
pest or weed control at 500 ppm (Sphaerotheca fuliginea): 95%
efficacy (Septoria tritici): 100%
pest or weed control at 500 ppm (Alternaria solani): 90%
chromatographic logP [1]: 3.83
pest or weed control at 500 ppm [2]: 100%
efficacy (Venturia inaequalis): 95%
pest or weed control at 100 ppm (Botrytis cinerea): 88%
pest or weed control at 500 ppm (Fusarium graminearum): 89%
pest or weed control at 500 ppm (Pyrenophora teres): 100%
pest or weed control at 100 ppm (Phytophthora infestans): 91%
pest or weed control at 500 ppm (Puccinia recondita): 95%
pest or weed control at 500 ppm (Leptosphaeria nodorum): 90%

CCC(=O)N(C(C)=O)c1cc(-c2c(-c3ccc(F)cc3)nn3c2CCC3)ccn1 [Example 5, N-acetyl-N-{4-[2-(4-fluorophenyl)-5,6-dihydro-4H-pyrrolo[1,2-b]pyrazol-3-yl]pyridin-2-yl}propanamide]
efficacy (Plasmopara viticola): 94%
pest or weed control at 500 ppm (Pyricularia oryzae): 95%
pest or weed control at 500 ppm (Sphaerotheca fuliginea): 100%
efficacy (Septoria tritici): 86%
pest or weed control at 500 ppm (Alternaria solani): 90%
chromatographic logP [1]: 2.43
pest or weed control at 500 ppm [2]: 100%
efficacy (Venturia inaequalis): 99%
pest or weed control at 100 ppm (Botrytis cinerea): 100%
pest or weed control at 500 ppm (Fusarium graminearum): 92%
pest or weed control at 500 ppm (Pyrenophora teres): 100%
pest or weed control at 100 ppm (Phytophthora infestans): 83%
pest or weed control at 500 ppm (Puccinia recondita): 100%
pest or weed control at 500 ppm (Leptosphaeria nodorum): 95%

CCC(=O)N(C(C)=O)c1cc(-c2c(-c3ccc(F)cc3)nn3c2CCC3C)ccn1 (stereo not shown) [Example 6, N-acetyl-N-{4-[2-(4-fluorophenyl)-6-methyl-5,6-dihydro-4H-pyrrolo[1,2-b]pyrazol-3-yl]pyridin-2-yl}propanamide]
efficacy (Plasmopara viticola): 94%
pest or weed control at 500 ppm (Pyricularia oryzae): 90%
pest or weed control at 500 ppm (Sphaerotheca fuliginea): 95%
efficacy (Septoria tritici): 86%
pest or weed control at 500 ppm (Alternaria solani): 70%
chromatographic logP [1]: 2.78
pest or weed control at 500 ppm [2]: 100%
efficacy (Venturia inaequalis): 98%
pest or weed control at 100 ppm (Botrytis cinerea): 89%
pest or weed control at 500 ppm (Fusarium graminearum): 83%
pest or weed control at 500 ppm (Pyrenophora teres): 100%
pest or weed control at 100 ppm (Phytophthora infestans): 91%
pest or weed control at 500 ppm (Puccinia recondita): 100%
pest or weed control at 500 ppm (Leptosphaeria nodorum): 95%

CCC(=O)N(C(=O)CC)c1cc(-c2c(-c3ccc(F)cc3)nn3c2CCC3)ccn1 [Example 7, N-{4-[2-(4-fluorophenyl)-5,6-dihydro-4H-pyrrolo[1,2-b]pyrazol-3-yl]pyridin-2-yl}-N-propionylpropanamide]
efficacy (Plasmopara viticola): 100%
pest or weed control at 500 ppm (Pyricularia oryzae): 70%
pest or weed control at 500 ppm (Sphaerotheca fuliginea): 98%
efficacy (Septoria tritici): 86%
pest or weed control at 500 ppm (Alternaria solani): 90%
chromatographic logP [1]: 2.81
pest or weed control at 500 ppm [2]: 100%
efficacy (Venturia inaequalis): 100%
pest or weed control at 100 ppm (Botrytis cinerea): 99%
pest or weed control at 500 ppm (Fusarium graminearum): 92%
pest or weed control at 500 ppm (Pyrenophora teres): 95%
pest or weed control at 100 ppm (Phytophthora infestans): 95%
pest or weed control at 500 ppm (Puccinia recondita): 95%
pest or weed control at 500 ppm (Leptosphaeria nodorum): 90%

CCC(=O)N(C(=O)C1CC1)c1cc(-c2c(-c3ccc(F)cc3)nn3c2CCC3)ccn1 [Example 9, N-{4-[2-(4-fluorophenyl)-5,6-dihydro-4H-pyrrolo[1,2-b]pyrazol-3-yl]pyridin-2-yl}-N-propionylcyclopropanecarboxamide]
efficacy (Plasmopara viticola): 95%
pest or weed control at 500 ppm (Pyricularia oryzae): 90%
pest or weed control at 500 ppm (Sphaerotheca fuliginea): 100%
chromatographic logP [1]: 2.87
efficacy (Venturia inaequalis): 100%
pest or weed control at 100 ppm (Botrytis cinerea): 96%
pest or weed control at 500 ppm (Pyrenophora teres): 95%
pest or weed control at 100 ppm (Phytophthora infestans): 79%
pest or weed control at 500 ppm (Puccinia recondita): 100%
pest or weed control at 500 ppm (Leptosphaeria nodorum): 95%

CCOC(=O)N(C(=O)C1CC1)c1cc(-c2c(-c3ccc(F)cc3)nn3c2CCC3)ccn1 [Example 11, ethyl (cyclopropylcarbonyl){4-[2-(4-fluorophenyl)-5,6-dihydro-4H-pyrrolo[1,2-b]pyrazol-3-yl]pyridin-2-yl}carbamate]
efficacy (Plasmopara viticola): 90%
pest or weed control at 500 ppm (Pyricularia oryzae): 70%
pest or weed control at 500 ppm (Sphaerotheca fuliginea): 95%
pest or weed control at 500 ppm (Alternaria solani): 95%
chromatographic logP [1]: 2.78
pest or weed control at 100 ppm (Botrytis cinerea): 74%
pest or weed control at 500 ppm (Pyrenophora teres): 95%
pest or weed control at 100 ppm (Phytophthora infestans): 86%
pest or weed control at 500 ppm (Puccinia recondita): 100%
pest or weed control at 500 ppm (Leptosphaeria nodorum): 95%
